Assay results as given in patent publication US8633319B2, “7-(1H-pyrazol-4-yl)-1,6-naphthyridine compounds as Syk inhibitors” (Glaxo Group Limited, priority 2010, dated 2014).

What was measured:
[1] = tested on: Salmonella typhimurium strains and Escherichia coli; experiment: Bacterial Mutation Screening Assay (Ames Test); details: as the free base; presence and absence of S9-mix
From the text: The bacterial mutation assay (Ames Test) is a short-term reverse mutation assay specifically designed to detect a wide range of chemical substances that can produce genetic damage that leads to gene mutations (base pair substitutions and frameshift mutations).
The test employs several histidine dependent Salmonella typhimurium strains and several tryptophan dependent strains of Escherichia coli each carrying different mutations in various genes in the histidine or tryptophan operon respectively. These mutations act as hot spots for mutagens that cause DNA damage via different mechanisms.
Briefly, bacteria are cultured for 10 h prior to the test. Top agar is supplemented with trace amounts of histidine, biotin, and tryptophan and aliquoted, before adding the required test article, vehicle or positive control followed by the appropriate bacterial suspension, and either an exogenous mammalian oxidative metabolism system (S9-mix) or buffer solution. The final mixture is poured over minimal agar plates which are then inverted and incubated before scoring for revertant colonies.
Bacterial Strains routinely used are Salmonella typhimurium strains TA98, TA100 TA1535 and TA1537 and Escherichia coli WP2 uvrA (pKM101).
Assays are performed in the presence and absence of an exogenous mammalian oxidative metabolising system (S9-mix), to mimic mammalian metabolism.
The highest concentration tested is one that allows maximum exposure up to 5000 μg/plate for freely soluble compounds, or the limit of solubility or toxicity (whichever is the lower). If compound solubility is a limiting factor, the maximum concentration chosen will be the lowest concentration at which compound precipitate is observed by eye on treatment plates at the end of the incubation period.
A single mutation assay (using the plate incorporation methodology) is conducted in the presence and absence of S9-mix (consisting of 4 replicate plates for vehicle controls and 2 replicate plates for the positive controls and test article).
Plates are usually scored electronically for bacterial colony formation following inspection of the plates for signs of toxicity (i.e. reduced growth (diminution) of background lawn, the presence of pin-dot/pseudorevertant colonies and/or a reduction in colony numbers). Plates will also be evaluated (by eye) for compound precipitation. […]
The number of colonies on each plate is recorded and mean values calculated for each concentration of test article used. Mean values are also be expressed as a ratio of the mean concurrent vehicle control value (i.e. fold increase). […]

Ramos B cells = experiment: Ramos pErk Assay; assay type: cell-based; details: Homo sapiens, as the hydrochloride salts, anti-IgM stimulated
Procedure: Ramos B cells (human B cells of Burkitt's Lymphoma) are stimulated using anti-IgM. […] The subsequent autophosphorylation of Syk leads to initiation of a signalling cascade resulting in B cell activation via the Erk MAP Kinase pathway. As a result Erk is phosphorylated and following cell lysis is detected by an immune capture assay.
Cells were plated at a density of 2.5×10^5/well in a volume of 25 μl assay medium (RPMI containing 10% heat inactivated foetal calf serum, 1% L-glutamine) in 96 v-well polypropylene plates. 25 μl appropriately diluted compound solution was added and the plate incubated for 30 min at 37° C. with 5% CO2. Cells were stimulated with 5 μl Fab′2 fragments of goat anti-human IgM (5 μg/ml final) for 7 min at 37° C. Cells are lysed by the addition of 55 μL 2×RIPA lysis buffer for 2 h at 4° C. Lysate may be frozen at this point at −80° C.
50 μl cell lysate was transferred to a 96 well MSD plate coated with anti-pErk1/2 (Thr/Tyr:202/204; 185/187) capture antibody and incubated for 16 hours at 4° C. or 3 hours at room temperature. The plate was washed and an anti-pErk detection antibody added (25 μl/well) for 1 hour at room temperature. This was removed, 150 μL MSD read buffer added and the resultant electrochemiluminescence signal measured.
Compound was prepared as a 10 mM stock in DMSO and a dilution series prepared in DMSO using 9 successive 5-fold dilutions. This dilution series was diluted a further 1:100 with assay medium to give the final concentration range to be tested of 5×10^−5 to 2.56×10^−11M. Compound dilutions were prepared using the Biomek 2000 and Biomek Nx automated robotic pipetting systems.

`CC(C)(C)n1cc(-c2cc3ncccc3c(NC[C@]3(F)CCCNC3)n2)cn1` [Example 2, 7-[1-(1,1-Dimethylethyl)-1H-pyrazol-4-yl]-N-{[(3S)-3-fluoro-3-piperidinyl]methyl}-1,6-naphthyridin-5-amine] was tested, and the Ames test result [1] was “negative” and the IC50 (Ramos B cells) was < 1000 nM.

In the case of `CCn1cc(-c2cc3ncccc3c(NC[C@]3(F)CCCNC3)n2)cn1` [Example 1, 7-(1-Ethyl-1H-pyrazol-4-yl)-N-{[(3S)-3-fluoro-3-piperidinyl]methyl}-1,6-naphthyridin-5-amine], the Ames test result [1] is reported as “negative” and the IC50 (Ramos B cells) is reported as < 1000 nM.

`CCn1cc(-c2cc3ncccc3c(OC[C@]3(F)CCCNC3)n2)cn1` [Example 4, 7-(1-Ethyl-1H-pyrazol-4-yl)-5-({[(3S)-3-fluoro-3-piperidinyl]methyl}oxy)-1,6-naphthyridine] was tested, and the Ames test result [1] was “negative” and the IC50 (Ramos B cells) was < 1000 nM.

`COCn1cc(-c2cc3ncccc3c(NC[C@]3(F)CCCNC3)n2)cn1` [Example 3, N-{[(3S)-3-Fluoro-3-piperidinyl]methyl}-7-{1-[(methyloxy)methyl]-1H-pyrazol-4-yl}-1,6-naphthyridin-5-amine] was tested, and the Ames test result [1] was “negative” and the IC50 (Ramos B cells) was < 1000 nM.
